Measurements published in patent publication US20240390404A1, “ANTI-HUMAN NOROVIRUS AGENT” (KEIO UNIVERSITY, priority 2018, published 2024).

Columns and labels:
[1] = test system: fucose-modified proteins including HBGA on the surface of 2D organoid; test: HBGA / fucose-modified protein expression on the surface of 2D organoid (binding of FITC-labeled UEA-1); type: cell-based, human; conditions: 2fp-fucose 0, 8, 40, 200, 1,000 μM, 4 continuous days
Experimental: The 2D organoid was subjected to a 2fp-fucose treatment (0, 8, 40, 200, and 1,000 μM) for 4 continuous days. Reduction of fucose-modified proteins including HBGA formed on the cell surfaces was investigated by checking binding of FITC (phosphor)-labeled UEA-1 (ulex europaeus agglutinin-1).

[2] = test system: human norovirus GII.3 (TCH2004 strain); test: Human norovirus proliferation inhibition in 2D organoid after 2fp-fucose treatment, GII.3 strain; type: cell-based; conditions: 3 days treatment before infection, days 3 and 6 after infection
Experimental: Feces of a human norovirus-infected patent contains a large amount of infectious human norovirus. Thus, the feces of a human norovirus-infected patient is suspended in distilled water or the like to a final concentration of about 10%, to thereby prepare a “10% feces suspension.” The 10% feces suspension is about 10-fold diluted with an ENRA medium. The diluted suspension is added to each of the aforementioned wells having the 2D organoid (5 μL/well) and subjected to incubation for about 3 hours, to thereby proliferate human norovirus. As a result of verification, it has been confirmed that human norovirus proliferates to about 100,000 times the initial count through the culture system employing the 2D organoid.
In the Example, there were tested strains of human norovirus obtained from feces of human norovirus infection patients through the aforementioned procedure and stocked before the test. Specifically, three strains belonging to the genetic group 2 (GII) which accounts for 80 to 90% of the infected patients were selected as test targets. The isolated strain lineages included in GII (FIG. 1) were GII. 6 belonging to “Lineage 1,” GII. […]
The effect of 2fp-fucose treatment on proliferation of human norovirus was investigated for each lineage of norovirus. […] 4, and the viral proliferation amount was determined on days 3 and 6 after infection (FIG. 4).

[3] = test system: human norovirus GII. 4 strain or GII. 6 strain; test: Effect of treatment with 2fp-fucose or 6a-fucose after differentiation, on infection and reinfection (RNA titer by real-time RT-PCR); type: cell-based; conditions: fucose analog 200 μM added on day 5, infection on day (5+2), 3 days culturing
Experimental: (a) The 2D organoid was disseminated to a 96-well plate. After completion of differentiation induction, two fucose analogs (i.e., 2fp-fucose and 6a-fucose) were each added on day 5 to a concentration of 200 μM, to thereby provide addition groups. The results are shown in FIG. 14(a) and FIG. 14(b), respectively. A non-addition group (untreated group) was also provided. Subsequently, the medium was removed from the wells on day (5+2), and the plate was washed. Then, infection with the GII. 4 strain or the GII. 6 strain was performed.
After the infection treatment, the human norovirus remaining in the medium was removed together with the medium, and the plate was washed thrice with a new medium. After washing, the aforementioned active ingredients were each added to the new medium to a concentration of 200 μM (addition groups), and no addition was performed with respect to the untreated (i.e., non-addition) group. Culturing was performed for 3 days. A portion (10 μL) of the medium was sampled from each well, and the samples were centrifuged at 10,000 g for 10 minutes, to thereby remove cell precipitates. The amount of human norovirus genomic RNA in the supernatant (1 μL) was determined through real-time RT-PCR.
In the test system, the effect of the anti-norovirus agent of the present invention provided after human norovirus infection was estimated on the basis of the following study. Specifically, among the fucose analog-treated 2D organoid cells, the living cells on growth day 3 (i.e., most of them were not infected with human norovirus, by virtue of the effect of the fucose analog) were subjected to a secondary infection operation (i.e., reinfection). The effect of the fucose analog on the reinfection was investigated.
In a specific procedure, the addition groups were prepared through the same procedure as employed in (a) above. The primarily infected cells were cultured in the presence of the fucose analog (200 μM) for 3 days, and the medium was removed from each culture system. After completion of washing, the cells were infected again with human norovirus, and then the virus was removed together with the medium. After completion of the next washing, a medium containing the fucose analog (200 μM) (represented by Reinf+2f-fuc or Reinf+6a-fuc), or a fucose analog-free medium (represented by Reinf−2f-fuc or Reinf−6a-fuc) was added thereto, and culturing was performed for further 3 days. Similar to the above case, the amount of human norovirus released to the supernatant was determined as an RNA titer. In the graphs, the two bars on the right side correspond to (Reinf+2f-fuc and Reinf+6a-fuc) or (Reinf−2f-fuc and Reinf−6a-fuc).

Compound: CC(=O)OC1O[C@@H](C)[C@@H](OC(C)=O)[C@@H](OC(C)=O)[C@@H]1F (stereo partly drawn) [2fp-fucose, (3S,4R,5R,6S)-3-fluoro-6-methyltetrahydro-2H-pyran-2,4,5-triyl triacetate]
- amount of α-link fucose including HBGA on the surface of the 2D organoid (UEA-1 binding) [1]: decrease in a concentration-dependent manner
- concentration of complete viral proliferation inhibition [2]: ≥ 40 µM
- rise in RNA titer (proliferation of human norovirus) in the addition group [3]: no rise in RNA titer
- rise in RNA titer of the untreated group with respect to the administration system [3]: ≥ 10 fold
